These results are taken from patent US20260355196A1, “INHIBITORS AND DEGRADERS OF PIP4K PROTEIN” (Larkspur Biosciences, Inc., priority 2023, published 2026).

Some results are limits rather than exact numbers.

The first assay has as its target T1, PIP4K2C (Homo sapiens, UniProt Q8TBX8).
T1 sequence (Q8TBX8 1-421): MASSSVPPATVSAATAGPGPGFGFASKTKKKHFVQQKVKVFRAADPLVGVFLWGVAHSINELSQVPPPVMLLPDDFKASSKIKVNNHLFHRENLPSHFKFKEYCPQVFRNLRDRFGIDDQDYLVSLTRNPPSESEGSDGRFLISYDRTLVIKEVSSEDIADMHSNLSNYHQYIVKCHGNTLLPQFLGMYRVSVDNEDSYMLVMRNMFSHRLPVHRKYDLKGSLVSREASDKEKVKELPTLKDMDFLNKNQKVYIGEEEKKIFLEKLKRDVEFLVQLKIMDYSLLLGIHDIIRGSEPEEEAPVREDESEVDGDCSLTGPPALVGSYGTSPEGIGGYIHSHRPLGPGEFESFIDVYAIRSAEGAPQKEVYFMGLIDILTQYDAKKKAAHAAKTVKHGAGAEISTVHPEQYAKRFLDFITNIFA
Nature of the assay: HiBiT PIP4K2C degradation assay in MOLT-4 cells (endogenous PIP4K2C C-terminally tagged with HiBiT). To be noted: 6 hours of incubation time, rather than 24 hours; MOLT-4, top concentration 10 micromolar; read-out: HiBIT-degradation MOLT4 PIP4k2C DC50 (6 hours, marked *). It counts as cell-based. Further details: untagged in primary human PBMCs and monocyte-derived dendritic cells. An outline of the steps:
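In a CRISPR-engineered MOLT-4 clone carrying HiBiT-tagged PIP4K2C, degradation was assessed after 24 or 6 hours of dosing (10 micromolar top, 3-fold steps). Luminescence from lytic HiBiT detection was fitted to obtain DC50.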
Background: HiBiT is a short tag that completes a luciferase, so light tracks the accessible tagged protein.
For the compound `O=C1CC[C@@H](Nc2ccc(C3CCN([C@H]4CC[C@H](C(=O)N[C@H]5CC[C@H](Nc6ncc(F)c(-c7cccc(-n8ccccc8=O)c7)n6)CC5)CC4)CC3)c(F)c2)C(=O)N1` [Compound 706, (1R,4R)-4-(4-(4-(((R)-2,6-dioxopiperidin-3-yl)amino)-2-fluorophenyl)piperidin-1-yl)-N-((1r,4R)-4-((5-fluoro-4-(3-(2-oxopyridin-1(2H)-yl)phenyl)pyrimidin-2-yl)amino)cyclohexyl)cyclohexane-1-carboxamide], the half-maximal degradation concentration (DC50) was less than 0.5 µM.

As to “trans-(1r,4R)-4-(4-(4-((2,6-dioxopiperidin-3-yl)amino)-2-fluorophenyl)piperidin-1-yl)-N-((1r,4R)-4-((5-fluoro-4-(6-(2-oxo-1,3-oxazinan-3-yl)pyridin-2-yl)pyrimidin-2-yl)amino)cyclohexyl)cyclohexane-1-carboxamide [Compound 539]”, the DC50 is greater than 5 µM.

Another assay deals with T1, PIP4K2C. As to the kind of experiment: Enzyme Binding Assay (KINOMEscan): active site-directed competition binding to an immobilized ligand. The arrangement: purchased Eurofins DiscoverX, San Diego, CA 87-0007-1094. The following applies: 11-point dose response, duplicate, top concentration 5 micromolar; read-out: Pip4k2c Kd: IC50. The method, then:
Example B-1: Enzyme Binding Assays (KINOMEscan)
PIP4K2C binding constants disclosed herein were determined using the proprietary Human PIP4K2C binding assay (Catalog number 87-0007-1094, Eurofins DiscoverX, San Diego, CA). This assay measures active site-directed competition binding to an immobilized ligand (see https://doi.org/10.1038/nbt1068, herein incorporated by reference in its entirety). Experiments were conducted using an 11-point dose response curve, in duplicate, with a top starting concentration of 5 micromolar; the Levenberg-Marquardt algorithm was used to fit a Hill equation to dose-response data to calculate IC50 values (see Table 5).
In the case of `NC(=O)[C@@H]1CCC[C@H](Nc2ncc(Cl)c(-c3cccc(-n4ccc(F)cc4=O)c3)n2)C1` (racemic) [Compound 168, rac-(1R,3S)-3-((5-chloro-4-(3-(4-fluoro-2-oxopyridin-1 (2H)-yl)phenyl)pyrimidin-2-yl)amino)cyclohexane-1-carboxamide], the IC50 was less than 0.5 µM.

Regarding `NC(=O)[C@H]1CCC[C@@H](Nc2ncc(F)c(-c3cccc(-c4ccc(=O)[nH]c4)c3)n2)C1` (racemic) [Compound 201, cis-3-((5-fluoro-4-(3-(6-oxo-1,6-dihydropyridin-3-yl)phenyl)pyrimidin-2-yl)amino)cyclohexane-1-carboxamide], the IC50 is less than 0.5 µM.

In the case of `NC(=O)[C@H]1CCC[C@@H](Nc2ncc(Cl)c(-c3ccc(F)cc3)n2)C1` (relative stereo) [Compound 28, cis-3-((5-chloro-4-(4-fluorophenyl)pyrimidin-2-yl)amino)cyclohexane-1-carboxamide], the IC50 lay in the range of 1 to 5 µM.

`CC(=O)N[C@H]1CCC[C@@H](Nc2ncc(Cl)c(-c3cccc(-c4ccccc4)c3)n2)C1` (relative stereo) [Compound 33, cis-N-(3-((4-([1,1′-biphenyl]-3-yl)-5-chloropyrimidin-2-yl)amino)cyclohexyl)acetamide]: the half-inhibitory concentration (IC50) is less than 0.5 µM.

Turning to `CC(=O)N[C@@H]1CCC[C@@H](Nc2ncc(Cl)c(-c3cccc(-c4ccccc4)c3)n2)C1` (relative stereo) [Compound 34, trans-N-(3-((4-([1,1′-biphenyl]-3-yl)-5-chloropyrimidin-2-yl)amino)cyclohexyl)acetamide], the half-inhibitory concentration (IC50) is less than 0.5 µM.

Turning to `NC(=O)[C@@H]1CCC[C@H](Nc2ncc(F)c(-c3cccc(N4CCCC4)c3)n2)C1` (relative stereo) [Compound 36, cis-3-((5-fluoro-4-(3-(pyrrolidin-1-yl)phenyl)pyrimidin-2-yl)amino)cyclohexane-1-carboxamide], the IC50 was less than 0.5 µM.

For `NC(=O)[C@@H]1CCC[C@H](Nc2ncc(F)c(-c3cccc(C4CCC4)c3)n2)C1` (relative stereo) [Compound 38, cis-3-((4-(3-cyclobutylphenyl)-5-fluoropyrimidin-2-yl)amino)cyclohexane-1-carboxamide], the IC50 was less than 0.5 µM.

`NC(=O)[C@@H]1CCC[C@H](Nc2ncc(F)c(-c3ccc(=O)n(-c4ccc(F)cc4)c3)n2)C1` (relative stereo) [Compound 41, cis-3-((5-fluoro-4-(1-(4-fluorophenyl)-6-oxo-1,6-dihydropyridin-3-yl)pyrimidin-2-yl)amino)cyclohexane-1-carboxamide]: the 50% inhibitory concentration (IC50) is less than 0.5 µM.

With `NC(=O)[C@H]1CCC[C@@H](Nc2ncc(F)c(-c3ccn(-c4ccc(F)cc4)n3)n2)C1` (relative stereo) [Compound 42, cis-3-((5-fluoro-4-(1-(4-fluorophenyl)-1H-pyrazol-3-yl)pyrimidin-2-yl)amino)cyclohexane-1-carboxamide], the IC50 fell in the range of 1 to 5 µM.

Regarding `NC(=O)[C@H]1CCC[C@@H](Nc2ncc(F)c(-c3cnn(-c4ccc(F)cc4)c3)n2)C1` (relative stereo) [Compound 43, cis-3-((5-fluoro-4-(1-(4-fluorophenyl)-1H-pyrazol-4-yl)pyrimidin-2-yl)amino)cyclohexane-1-carboxamide], the half-inhibitory concentration (IC50) was 0.5 to 1 µM.

`NC(=O)[C@@H]1CCC[C@H](Nc2ncc(F)c(C3CCCN(c4ccc(F)cc4)C3)n2)C1` (relative stereo) [Compound 91, cis-3-((5-fluoro-4-(1-(4-fluorophenyl)piperidin-3-yl)pyrimidin-2-yl)amino)cyclohexane-1-carboxamide]: the IC50 was less than 0.5 µM.

For `NC(=O)[C@@H]1CCC[C@H](Nc2ncc(F)c(-c3cccc(-c4cccc(=O)[nH]4)c3)n2)C1` (relative stereo) [Compound 112, cis-3-((5-fluoro-4-(3-(6-oxo-1,6-dihydropyridin-2-yl)phenyl)pyrimidin-2-yl)amino)cyclohexane-1-carboxamide], the half-inhibitory concentration (IC50) is less than 0.5 µM.

Turning to `NC(=O)[C@@H]1CCC[C@H](Nc2ncc(F)c(-c3ccn(C4CCCCC4)n3)n2)C1` (relative stereo) [Compound 113, cis-3-((4-(1-cyclohexyl-1H-pyrazol-3-yl)-5-fluoropyrimidin-2-yl)amino)cyclohexane-1-carboxamide], the IC50 lay in the range of 1 to 5 µM.

For the compound `NC(=O)[C@H]1CCC[C@@H](Nc2ncc(Cl)c(C3CCN(C(=O)c4ccc(F)cc4)C3)n2)C1` (relative stereo) [Compound 135, cis-3-((5-chloro-4-(1-(4-fluorobenzoyl)pyrrolidin-3-yl)pyrimidin-2-yl)amino)cyclohexane-1-carboxamide], the half-maximal inhibitory concentration (IC50) is less than 0.5 µM.

Regarding `NC(=O)[C@@H]1CCC[C@H](Nc2ncc(Cl)c(-c3cccc(-n4ccccc4=O)c3)n2)C1` (relative stereo) [Compound 136, cis-3-((5-chloro-4-(3-(2-oxopyridin-1 (2H)-yl)phenyl)pyrimidin-2-yl)amino)cyclohexane-1-carboxamide], the concentration for half-maximal inhibition (IC50) was less than 0.5 µM.

On to `NC(=O)[C@@H]1CCC[C@H](Nc2ncc(F)c(-c3cccc(-c4ccc[nH]c4=O)c3)n2)C1` (relative stereo) [Compound 150, cis-3-((5-fluoro-4-(3-(2-oxo-1,2-dihydropyridin-3-yl)phenyl)pyrimidin-2-yl)amino)cyclohexane-1-carboxamide], for which the IC50 is less than 0.5 µM.

Take `NC(=O)[C@H]1CCC[C@@H](Nc2ncc(F)c(-c3cccc(C4COC4)c3)n2)C1` (relative stereo) [Compound 170, cis-3-((5-fluoro-4-(3-(oxetan-3-yl)phenyl)pyrimidin-2-yl)amino)cyclohexane-1-carboxamide]: the IC50 is less than 0.5 µM.

Take `NC(=O)[C@H]1CCC[C@@H](Nc2ncc(F)c(-c3cccc(C4(O)COC4)c3)n2)C1` (relative stereo) [Compound 173, cis-3-((5-fluoro-4-(3-(3-hydroxyoxetan-3-yl)phenyl)pyrimidin-2-yl)amino)cyclohexane-1-carboxamide]: the 50% inhibitory concentration (IC50) is less than 0.5 µM.

For `CC(C)(O)c1cc(-c2nc(N[C@@H]3CCC[C@H](C(N)=O)C3)ncc2F)ccn1` (relative stereo) [Compound 177, cis-3-((5-fluoro-4-(2-(2-hydroxypropan-2-yl)pyridin-4-yl)pyrimidin-2-yl)amino)cyclohexane-1-carboxamide], the half-inhibitory concentration (IC50) was less than 0.5 µM.

Consider `CC(=O)N1CCCC(c2cccc(-c3nc(N[C@@H]4CCC[C@H](C(N)=O)C4)ncc3F)c2)C1` (relative stereo) [Compound 178, cis-3-((4-(3-(1-acetylpiperidin-3-yl)phenyl)-5-fluoropyrimidin-2-yl)amino)cyclohexane-1-carboxamide], for which the half-maximal inhibitory concentration (IC50) is less than 0.5 µM.

Take `NC(=O)[C@H]1CCC[C@@H](Nc2ncc(F)c(-c3cccc(-c4cc[nH]c(=O)c4)c3)n2)C1` (relative stereo) [Compound 200, cis-3-((5-fluoro-4-(3-(2-oxo-1,2-dihydropyridin-4-yl)phenyl)pyrimidin-2-yl)amino)cyclohexane-1-carboxamide]: the IC50 is less than 0.5 µM.

For the compound `NC(=O)[C@H]1CCC[C@@H](Nc2ncc(F)c(-c3cccc(N4CCCOC4=O)c3)n2)C1` (relative stereo) [Compound 227, cis-3-((5-fluoro-4-(3-(2-oxo-1,3-oxazinan-3-yl)phenyl)pyrimidin-2-yl)amino)cyclohexane-1-carboxamide], the IC50 was less than 0.5 µM.

Turning to `NC(=O)[C@@H]1CCC[C@H](Nc2ncc(F)c(-c3cccc(N4CCOCC4=O)c3)n2)C1` (relative stereo) [Compound 269, cis-3-((5-fluoro-4-(3-(3-oxomorpholino)phenyl)pyrimidin-2-yl)amino)cyclohexane-1-carboxamide], the IC50 is less than 0.5 µM.

The DC50 is the concentration giving 50% degradation. As a reminder, the IC50 is the concentration that gives 50% inhibition.
